Values quoted from earlier work in PMC9851200, “Multiparameter phenotypic screening for endogenous TFEB and TFE3 translocation identifies novel chemical series modulating lysosome function” (Autophagy, 2022).

Assays:
Set-up in all cases: method as in original PKIS2 published data
[1] = molecular target: kinases (KINOMEscan panel) (Homo sapiens, UniProt P53671); details: LIMK2; Published KINOMEscan; ref original PKIS2 published data; cited from earlier work
[2] = molecular target: kinases (KINOMEscan panel) (Homo sapiens, UniProt Q9Y6R4); details: MAP3K4; Published KINOMEscan; ref original PKIS2 published data; cited from earlier work
[3] = molecular target: kinases (KINOMEscan panel) (Homo sapiens, UniProt Q13523); details: PRPF4B; Published KINOMEscan; ref original PKIS2 published data; cited from earlier work
[4] = molecular target: kinases (KINOMEscan panel) (Homo sapiens, UniProt Q13233); details: MAP3K1; Published KINOMEscan; ref original PKIS2 published data; cited from earlier work
[5] = molecular target: kinases (KINOMEscan panel) (Homo sapiens, UniProt O43293); details: DAPK3; Published KINOMEscan; ref original PKIS2 published data; cited from earlier work
[6] = molecular target: T1, kinases (KINOMEscan panel) (Homo sapiens, UniProt O00141); details: kinase SGK1; Published KINOMEscan; ref original PKIS2 published data; cited from earlier work
T1 sequence (O00141 1-431): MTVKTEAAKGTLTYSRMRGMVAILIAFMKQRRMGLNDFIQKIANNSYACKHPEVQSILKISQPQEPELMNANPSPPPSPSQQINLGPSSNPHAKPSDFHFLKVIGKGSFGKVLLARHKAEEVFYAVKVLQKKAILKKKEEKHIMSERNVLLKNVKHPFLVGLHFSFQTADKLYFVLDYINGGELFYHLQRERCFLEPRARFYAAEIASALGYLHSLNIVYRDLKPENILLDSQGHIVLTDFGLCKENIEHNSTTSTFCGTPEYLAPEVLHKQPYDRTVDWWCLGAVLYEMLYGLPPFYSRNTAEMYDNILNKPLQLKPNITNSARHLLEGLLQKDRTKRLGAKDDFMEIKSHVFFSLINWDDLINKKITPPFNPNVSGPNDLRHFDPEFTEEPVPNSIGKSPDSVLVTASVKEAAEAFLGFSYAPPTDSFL

[7] = molecular target: kinases (KINOMEscan panel) (Homo sapiens, UniProt P22607); details: FGFR3; Published KINOMEscan; ref original PKIS2 published data; cited from earlier work
[8] = molecular target: T2, kinases (KINOMEscan panel) (Homo sapiens, UniProt Q8N752); details: CSNK1A1L; Published KINOMEscan; ref original PKIS2 published data; cited from earlier work
T2 sequence (Q8N752 1-337): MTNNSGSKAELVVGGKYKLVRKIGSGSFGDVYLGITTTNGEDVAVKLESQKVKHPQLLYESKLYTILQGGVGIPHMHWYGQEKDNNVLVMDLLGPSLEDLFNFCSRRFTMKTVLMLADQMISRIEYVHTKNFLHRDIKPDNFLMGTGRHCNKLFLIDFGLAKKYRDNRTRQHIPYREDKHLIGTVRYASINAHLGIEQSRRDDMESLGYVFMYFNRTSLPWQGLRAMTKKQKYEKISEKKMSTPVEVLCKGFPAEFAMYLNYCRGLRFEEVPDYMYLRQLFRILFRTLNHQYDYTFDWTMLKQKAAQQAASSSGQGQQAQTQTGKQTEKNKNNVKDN

[9] = molecular target: kinases (KINOMEscan panel) (Homo sapiens, UniProt P15056); details: BRAF; Published KINOMEscan; ref original PKIS2 published data; cited from earlier work
[10] = molecular target: T3, kinases (KINOMEscan panel) (Homo sapiens, UniProt Q8TBX8); details: PIP4K2C; Published KINOMEscan; ref original PKIS2 published data; cited from earlier work
T3 sequence (Q8TBX8 1-421): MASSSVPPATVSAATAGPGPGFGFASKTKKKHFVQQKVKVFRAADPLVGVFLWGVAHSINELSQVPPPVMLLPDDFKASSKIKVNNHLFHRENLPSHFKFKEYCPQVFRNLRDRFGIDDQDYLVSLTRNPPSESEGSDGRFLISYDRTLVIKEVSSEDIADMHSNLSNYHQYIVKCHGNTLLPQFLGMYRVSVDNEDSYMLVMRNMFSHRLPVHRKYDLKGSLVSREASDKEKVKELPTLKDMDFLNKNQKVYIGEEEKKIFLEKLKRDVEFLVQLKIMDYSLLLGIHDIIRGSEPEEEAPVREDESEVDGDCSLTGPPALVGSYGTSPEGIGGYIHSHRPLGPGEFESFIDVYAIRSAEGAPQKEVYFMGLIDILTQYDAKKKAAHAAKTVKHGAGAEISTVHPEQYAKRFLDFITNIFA

[11] = molecular target: kinases (KINOMEscan panel) (Homo sapiens, UniProt P49336); details: CDK8; Published KINOMEscan; ref original PKIS2 published data; cited from earlier work
kinases (KINOMEscan panel) (Homo sapiens, UniProt P49336), sequence (P49336 whole entry): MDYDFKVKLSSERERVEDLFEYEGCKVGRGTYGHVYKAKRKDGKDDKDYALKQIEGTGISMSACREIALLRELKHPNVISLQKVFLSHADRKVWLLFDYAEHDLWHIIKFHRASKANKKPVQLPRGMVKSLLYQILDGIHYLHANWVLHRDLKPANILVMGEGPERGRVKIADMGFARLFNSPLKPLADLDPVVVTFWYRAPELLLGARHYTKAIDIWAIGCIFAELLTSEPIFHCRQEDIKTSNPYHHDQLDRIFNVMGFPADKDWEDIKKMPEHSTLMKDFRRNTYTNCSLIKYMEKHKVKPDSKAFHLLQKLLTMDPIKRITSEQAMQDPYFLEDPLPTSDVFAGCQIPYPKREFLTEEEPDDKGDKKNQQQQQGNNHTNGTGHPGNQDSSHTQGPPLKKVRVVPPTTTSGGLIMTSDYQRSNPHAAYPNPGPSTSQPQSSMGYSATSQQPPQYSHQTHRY

kinases (KINOMEscan panel) (Homo sapiens, UniProt O43293), sequence (O43293 whole entry): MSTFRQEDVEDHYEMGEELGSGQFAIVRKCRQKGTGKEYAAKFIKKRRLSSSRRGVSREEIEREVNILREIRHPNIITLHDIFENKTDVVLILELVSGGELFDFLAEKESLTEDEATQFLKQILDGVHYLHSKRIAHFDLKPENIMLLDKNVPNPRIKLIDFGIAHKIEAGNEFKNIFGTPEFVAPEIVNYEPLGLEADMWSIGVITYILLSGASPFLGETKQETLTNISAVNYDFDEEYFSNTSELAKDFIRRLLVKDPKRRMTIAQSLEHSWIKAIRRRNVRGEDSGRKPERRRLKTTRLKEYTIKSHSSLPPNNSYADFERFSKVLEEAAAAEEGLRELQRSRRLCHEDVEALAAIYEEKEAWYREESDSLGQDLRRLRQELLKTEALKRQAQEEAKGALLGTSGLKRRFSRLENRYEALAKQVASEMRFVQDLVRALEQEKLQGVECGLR
kinases (KINOMEscan panel) (Homo sapiens, UniProt Q9Y6R4), sequence (Q9Y6R4 whole entry): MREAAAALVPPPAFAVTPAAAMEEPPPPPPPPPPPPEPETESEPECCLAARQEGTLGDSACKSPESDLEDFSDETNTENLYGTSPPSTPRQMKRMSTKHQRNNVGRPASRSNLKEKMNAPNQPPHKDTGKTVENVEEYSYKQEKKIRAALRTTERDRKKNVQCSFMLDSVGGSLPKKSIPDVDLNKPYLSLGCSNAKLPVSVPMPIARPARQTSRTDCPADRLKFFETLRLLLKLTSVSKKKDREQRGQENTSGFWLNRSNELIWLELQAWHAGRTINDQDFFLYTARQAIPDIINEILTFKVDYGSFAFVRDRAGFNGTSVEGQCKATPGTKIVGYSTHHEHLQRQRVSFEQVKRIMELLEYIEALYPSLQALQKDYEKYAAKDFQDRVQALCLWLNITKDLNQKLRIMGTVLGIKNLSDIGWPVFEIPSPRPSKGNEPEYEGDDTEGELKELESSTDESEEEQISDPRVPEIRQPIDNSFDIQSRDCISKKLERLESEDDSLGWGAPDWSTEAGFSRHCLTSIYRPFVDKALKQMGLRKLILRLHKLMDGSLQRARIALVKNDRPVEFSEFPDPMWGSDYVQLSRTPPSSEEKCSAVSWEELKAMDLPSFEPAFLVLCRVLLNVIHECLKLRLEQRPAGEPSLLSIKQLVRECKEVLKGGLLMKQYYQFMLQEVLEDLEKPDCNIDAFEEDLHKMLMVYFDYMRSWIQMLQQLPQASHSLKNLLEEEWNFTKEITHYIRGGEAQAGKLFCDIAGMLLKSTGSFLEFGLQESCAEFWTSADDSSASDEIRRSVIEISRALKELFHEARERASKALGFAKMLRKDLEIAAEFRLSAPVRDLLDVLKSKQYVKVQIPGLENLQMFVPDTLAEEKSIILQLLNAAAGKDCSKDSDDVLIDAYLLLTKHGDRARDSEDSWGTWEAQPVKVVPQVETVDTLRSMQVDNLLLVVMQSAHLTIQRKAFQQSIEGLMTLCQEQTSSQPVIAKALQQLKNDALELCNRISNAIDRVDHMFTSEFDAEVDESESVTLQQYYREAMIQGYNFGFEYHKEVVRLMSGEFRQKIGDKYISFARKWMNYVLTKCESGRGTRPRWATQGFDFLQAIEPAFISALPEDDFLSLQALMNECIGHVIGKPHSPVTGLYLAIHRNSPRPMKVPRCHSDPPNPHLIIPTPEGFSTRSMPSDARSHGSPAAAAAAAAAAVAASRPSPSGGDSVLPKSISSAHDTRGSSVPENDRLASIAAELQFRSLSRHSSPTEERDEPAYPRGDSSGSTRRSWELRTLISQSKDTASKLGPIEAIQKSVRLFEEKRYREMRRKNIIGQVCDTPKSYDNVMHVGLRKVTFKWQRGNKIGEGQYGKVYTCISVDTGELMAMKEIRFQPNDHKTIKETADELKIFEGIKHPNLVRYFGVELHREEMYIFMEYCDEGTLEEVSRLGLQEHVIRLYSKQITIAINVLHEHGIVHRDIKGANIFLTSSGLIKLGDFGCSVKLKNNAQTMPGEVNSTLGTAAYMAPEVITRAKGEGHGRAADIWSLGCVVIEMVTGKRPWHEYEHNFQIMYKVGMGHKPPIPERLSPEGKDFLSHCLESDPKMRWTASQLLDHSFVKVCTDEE
kinases (KINOMEscan panel) (Homo sapiens, UniProt P22607), sequence (P22607 23-806): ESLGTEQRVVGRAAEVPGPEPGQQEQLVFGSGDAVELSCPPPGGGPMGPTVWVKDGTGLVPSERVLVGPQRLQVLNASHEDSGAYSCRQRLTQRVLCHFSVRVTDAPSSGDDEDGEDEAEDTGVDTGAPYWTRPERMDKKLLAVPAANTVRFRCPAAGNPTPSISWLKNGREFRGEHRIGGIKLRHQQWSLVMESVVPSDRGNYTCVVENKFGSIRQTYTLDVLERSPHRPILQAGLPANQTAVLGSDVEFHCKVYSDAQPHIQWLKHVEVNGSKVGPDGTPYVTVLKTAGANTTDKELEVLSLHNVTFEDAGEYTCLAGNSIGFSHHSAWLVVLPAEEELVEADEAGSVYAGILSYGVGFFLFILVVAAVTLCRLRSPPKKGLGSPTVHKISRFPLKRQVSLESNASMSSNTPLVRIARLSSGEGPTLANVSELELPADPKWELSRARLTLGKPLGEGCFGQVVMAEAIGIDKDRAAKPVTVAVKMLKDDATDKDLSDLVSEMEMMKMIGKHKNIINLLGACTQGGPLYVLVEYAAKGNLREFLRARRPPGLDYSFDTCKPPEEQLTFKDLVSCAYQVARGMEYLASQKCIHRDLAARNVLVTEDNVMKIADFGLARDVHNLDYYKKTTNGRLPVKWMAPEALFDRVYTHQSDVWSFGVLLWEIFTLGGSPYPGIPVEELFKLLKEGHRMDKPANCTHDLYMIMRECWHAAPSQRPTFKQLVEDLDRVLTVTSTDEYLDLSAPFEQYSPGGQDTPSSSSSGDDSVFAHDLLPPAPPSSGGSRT
kinases (KINOMEscan panel) (Homo sapiens, UniProt Q13523), sequence (Q13523 whole entry): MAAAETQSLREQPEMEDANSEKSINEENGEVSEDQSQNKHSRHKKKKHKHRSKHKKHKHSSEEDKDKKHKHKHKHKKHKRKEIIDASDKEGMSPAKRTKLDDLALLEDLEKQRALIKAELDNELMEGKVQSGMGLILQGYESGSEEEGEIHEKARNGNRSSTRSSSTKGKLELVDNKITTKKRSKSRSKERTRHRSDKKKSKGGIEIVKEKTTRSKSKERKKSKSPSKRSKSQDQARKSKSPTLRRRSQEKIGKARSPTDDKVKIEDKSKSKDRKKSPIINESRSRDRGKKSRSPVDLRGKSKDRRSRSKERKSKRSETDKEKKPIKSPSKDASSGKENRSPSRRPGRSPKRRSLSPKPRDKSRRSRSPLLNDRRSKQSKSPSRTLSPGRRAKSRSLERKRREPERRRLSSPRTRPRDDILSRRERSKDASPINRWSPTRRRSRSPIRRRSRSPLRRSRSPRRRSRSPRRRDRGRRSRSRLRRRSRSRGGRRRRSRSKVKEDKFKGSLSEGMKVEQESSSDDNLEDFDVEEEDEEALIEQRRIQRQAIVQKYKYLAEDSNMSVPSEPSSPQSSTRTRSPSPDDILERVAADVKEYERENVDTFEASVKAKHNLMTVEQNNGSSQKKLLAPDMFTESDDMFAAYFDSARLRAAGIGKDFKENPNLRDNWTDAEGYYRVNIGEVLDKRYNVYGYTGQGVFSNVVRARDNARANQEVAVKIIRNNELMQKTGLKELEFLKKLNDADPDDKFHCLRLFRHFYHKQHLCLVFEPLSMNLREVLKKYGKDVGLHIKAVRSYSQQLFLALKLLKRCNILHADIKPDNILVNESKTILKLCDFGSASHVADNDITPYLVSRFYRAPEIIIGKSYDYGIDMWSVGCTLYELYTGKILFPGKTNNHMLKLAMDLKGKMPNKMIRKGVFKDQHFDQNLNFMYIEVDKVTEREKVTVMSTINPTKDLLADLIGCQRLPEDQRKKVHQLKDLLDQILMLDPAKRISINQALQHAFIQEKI
kinases (KINOMEscan panel) (Homo sapiens, UniProt P53671), sequence (P53671 whole entry): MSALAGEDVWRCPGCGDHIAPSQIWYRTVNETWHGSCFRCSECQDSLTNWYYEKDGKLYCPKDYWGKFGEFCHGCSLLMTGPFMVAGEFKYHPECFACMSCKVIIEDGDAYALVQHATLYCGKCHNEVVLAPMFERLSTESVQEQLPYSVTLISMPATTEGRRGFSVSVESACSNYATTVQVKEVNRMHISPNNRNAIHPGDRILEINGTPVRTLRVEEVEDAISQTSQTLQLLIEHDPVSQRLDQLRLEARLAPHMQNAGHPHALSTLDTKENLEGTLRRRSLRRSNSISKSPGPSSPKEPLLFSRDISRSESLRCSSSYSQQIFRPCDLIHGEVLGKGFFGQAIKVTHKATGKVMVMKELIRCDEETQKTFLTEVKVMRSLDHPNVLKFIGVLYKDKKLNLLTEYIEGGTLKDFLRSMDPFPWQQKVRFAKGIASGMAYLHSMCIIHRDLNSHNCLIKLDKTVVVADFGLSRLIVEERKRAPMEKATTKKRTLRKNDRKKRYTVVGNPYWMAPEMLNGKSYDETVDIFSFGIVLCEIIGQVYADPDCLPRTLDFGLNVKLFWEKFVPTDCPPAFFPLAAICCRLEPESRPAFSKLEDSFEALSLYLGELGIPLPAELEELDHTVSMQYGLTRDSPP

SMILES: Cc1cccc(-c2nc(Nc3ccncc3)c3ccccc3n2)n1 [NK215]
- KINOMEscan LIMK2 [1]: 5
- KINOMEscan MAP3K4 [2]: 16
- KINOMEscan PRPF4B [3]: 17
- KINOMEscan MAP3K1 [4]: 0
- KINOMEscan DAPK3 [5]: 17
- KINOMEscan SGK1 [6]: 0
- KINOMEscan FGFR3 [7]: 2
- KINOMEscan CSNK1A1L [8]: 10
- KINOMEscan BRAF [9]: 0
- KINOMEscan PIP4K2C [10]: 18
- KINOMEscan CDK8 [11]: 65
